From patent publication US11254686B1 (Corvus Pharmaceuticals, Inc., priority 2017, dated 2022)
Several values for one entry are separate records, joined by “and”; a condition that tells them apart may be missing. Equal values may be shown once.

Experiments:
Format in all cases: biochemical
[1] = target: adenosine A1 receptor (Homo sapiens (Human), UniProt P30542); assay: Adenosine receptor activity assay (Table 1), A1 cAMP
[2] = target: adenosine A3 receptor (Homo sapiens (Human), UniProt P0DMS8); assay: Adenosine receptor activity assay (Table 1), A3 cAMP
[3] = target: adenosine A2A receptor (Homo sapiens (Human), UniProt P29274); assay: Adenosine receptor activity assay (Table 1), A2A activity; conditions: cAMP; read-out: Ave A2A cAMP IC50
[4] = target: adenosine A2B receptor (Homo sapiens (Human), UniProt P29275); assay: Adenosine receptor activity assay (Table 1), A2B activity; conditions: for Ratio: A2A activity to the A2B activity, A2A/A2B; for IC50: cAMP, read-out: Ave A2B cAMP IC50
Sequence of adenosine A2B receptor (P29275 whole entry): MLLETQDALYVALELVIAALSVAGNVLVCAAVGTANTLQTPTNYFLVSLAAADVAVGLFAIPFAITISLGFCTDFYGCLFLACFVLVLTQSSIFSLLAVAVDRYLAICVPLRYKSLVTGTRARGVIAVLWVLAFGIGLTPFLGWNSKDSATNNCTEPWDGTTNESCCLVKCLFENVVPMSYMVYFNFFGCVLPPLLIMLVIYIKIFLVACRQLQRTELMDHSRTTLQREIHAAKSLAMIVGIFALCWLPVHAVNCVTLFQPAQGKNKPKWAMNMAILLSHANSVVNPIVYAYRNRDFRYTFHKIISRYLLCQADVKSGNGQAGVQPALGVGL

Sequence of adenosine A2A receptor (P29274 whole entry): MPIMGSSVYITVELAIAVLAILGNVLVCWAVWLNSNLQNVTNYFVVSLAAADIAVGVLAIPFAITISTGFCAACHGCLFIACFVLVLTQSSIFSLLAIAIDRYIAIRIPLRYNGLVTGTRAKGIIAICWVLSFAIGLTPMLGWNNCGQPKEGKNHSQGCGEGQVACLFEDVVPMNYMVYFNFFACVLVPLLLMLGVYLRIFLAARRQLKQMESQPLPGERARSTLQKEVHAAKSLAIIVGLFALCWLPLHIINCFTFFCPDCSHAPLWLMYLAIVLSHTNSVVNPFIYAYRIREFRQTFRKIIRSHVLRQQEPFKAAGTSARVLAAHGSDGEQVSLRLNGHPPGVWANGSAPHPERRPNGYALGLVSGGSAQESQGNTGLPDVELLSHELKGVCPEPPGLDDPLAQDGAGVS
Sequence of adenosine A3 receptor (P0DMS8 whole entry): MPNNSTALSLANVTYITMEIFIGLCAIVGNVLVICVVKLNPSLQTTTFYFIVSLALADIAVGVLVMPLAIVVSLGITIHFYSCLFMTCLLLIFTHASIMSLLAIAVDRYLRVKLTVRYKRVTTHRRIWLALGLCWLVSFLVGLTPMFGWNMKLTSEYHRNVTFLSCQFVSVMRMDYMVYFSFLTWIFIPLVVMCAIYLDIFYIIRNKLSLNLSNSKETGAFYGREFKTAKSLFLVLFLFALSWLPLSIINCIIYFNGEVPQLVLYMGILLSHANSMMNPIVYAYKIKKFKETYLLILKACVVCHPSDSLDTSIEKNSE
Sequence of adenosine A1 receptor (P30542 whole entry): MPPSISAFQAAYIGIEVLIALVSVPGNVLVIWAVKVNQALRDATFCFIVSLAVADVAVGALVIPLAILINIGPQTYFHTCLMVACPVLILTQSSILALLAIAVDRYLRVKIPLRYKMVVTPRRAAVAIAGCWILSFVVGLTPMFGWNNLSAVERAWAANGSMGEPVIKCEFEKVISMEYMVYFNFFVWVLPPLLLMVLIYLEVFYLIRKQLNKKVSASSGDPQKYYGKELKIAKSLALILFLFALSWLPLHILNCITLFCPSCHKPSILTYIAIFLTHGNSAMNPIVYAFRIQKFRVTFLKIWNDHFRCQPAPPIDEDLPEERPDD

SMILES | IC50 [1] [nM] | IC50 [2] [nM] | IC50 [3] [nM] | Ratio [4] | IC50 [4] [nM]
C[C@H](Nc1nc(C(=O)N2CC[C@@H](C(=O)NOC3CCCC3)C2)c2sccc2n1)c1cncc(F)c1 [Example Z628, (R)—N-(Cyclopentyloxy)-1-(2-(((S)-1-(5-fluoropyridin-3-yl)ethyl)amino)thieno[3,2-d]pyrimidine-4-carbonyl)pyrrolidine-3-carboxamide] | > 500 | 100 to 500 | < 10 | 1.25 | < 10
C[C@H](Nc1nc(C(=O)N2CC(NC(=O)c3ccc(C(F)(F)F)o3)C2)c2sccc2n1)c1cncc(F)c1 [Example Z629, (S)—N-(1-(2-((1-(5-Fluoropyridin-3-yl)ethyl)amino)thieno[3,2-d]pyrimidine-4-carbonyl)azetidin-3-yl)-5-(trifluoromethyl)furan-2-carboxamide] | > 500 | > 500 | 10 to 50 | 2.40 | 10 to 50
CCC(CC)NC(=O)NC1CN(C(=O)c2nc(N[C@@H](C)c3cncc(F)c3)nc3ccsc23)C1 [Example Z630, (S)-1-(1-(2-((1-(5-Fluoropyridin-3-yl)ethyl)amino)thieno[3,2-d]pyrimidine-4-carbonyl)azetidin-3-yl)-3-(pentan-3-yl)urea] | > 500 | 10 to 50 | < 10 | 0.33 | 10 to 50
C[C@H](Nc1nc(C(=O)N2CC(NC(=O)C34CC5CC(CC(C5)C3)C4)C2)c2sccc2n1)c1cncc(F)c1 [Example Z631, (3S,5S,7S)—N-(1-(2-(((S)-1-(5-Fluoropyridin-3-yl)ethyl)amino)thieno[3,2-d]pyrimidine-4-carbonyl)azetidin-3-yl)adamantane-1-carboxamide] | > 500 | 10 to 50 | < 10 | 0.09 | 10 to 50
Cc1cc2nc(N[C@@H](C)c3cncc(F)c3)nc(C(=O)N3CC(NC(=O)c4ccc(C(F)(F)F)o4)C3)c2s1 [Example Z632, (S)—N-(1-(2-((1-(5-Fluoropyridin-3-yl)ethyl)amino)-6-methylthieno[3,2-d]pyrimidine-4-carbonyl)azetidin-3-yl)-5-(trifluoromethyl)furan-2-carboxamide] | > 500 | 100 to 500 | < 10 | 1.12 | < 10
C[C@H](Nc1nc(C(=O)N2CC(NC(=O)c3cccc(C(F)(F)F)c3)C2)c2sccc2n1)c1cncc(F)c1 [Example Z633, (S)—N-(1-(2-((1-(5-Fluoropyridin-3-yl)ethyl)amino)thieno[3,2-d]pyrimidine-4-carbonyl)azetidin-3-yl)-3-(trifluoromethyl)benzamide] | > 500 | 100 to 500 | 10 to 50 | 1.62 | < 10
C[C@H](Nc1nc(C(=O)N2CC(NC(=O)Nc3ccccc3)C2)c2sccc2n1)c1cncc(F)c1 [Example Z634, (S)-1-(1-(2-((1-(5-Fluoropyridin-3-yl)ethyl)amino)thieno[3,2-d]pyrimidine-4-carbonyl)azetidin-3-yl)-3-phenylurea] | > 500 | 100 to 500 | 10 to 50 | 2.22 | < 10
COc1cccc(C(=O)NC2CN(C(=O)c3nc(N[C@@H](C)c4cncc(F)c4)nc4ccsc34)C2)c1 [Example Z635, (S)—N-(1-(2-((1-(5-Fluoropyridin-3-yl)ethyl)amino)thieno[3,2-d]pyrimidine-4-carbonyl)azetidin-3-yl)-3-methoxybenzamide] | > 500 | 100 to 500 | 10 to 50 | 2.06 | 10 to 50

The next lines start with the values.

IC50 [1] [nM] | IC50 [2] [nM] | IC50 [3] [nM] | Ratio [4] | IC50 [4] [nM] | SMILES
> 500 | > 500 | 50 to 100 | 6.42 | 10 to 50 | C[C@H](Nc1nc(C(=O)N2CC(NC(=O)c3ccncc3)C2)c2sccc2n1)c1cncc(F)c1 [Example Z619, (S)—N-(1-(2-((1-(5-Fluoropyridin-3-yl)ethyl)amino)thieno[3,2-d]pyrimidine-4-carbonyl)azetidin-3-yl)isonicotinamide]
> 500 | > 500 | 50 to 100 | 3.94 | 10 to 50 | C[C@H](Nc1nc(C(=O)N2CC(NC(=O)c3cccnc3)C2)c2sccc2n1)c1cncc(F)c1 [Example Z620, (S)—N-(1-(2-((1-(5-Fluoropyridin-3-yl)ethyl)amino)thieno[3,2d]pyrimidine-4-carbonyl)azetidin-3-yl)nicotinamide]
> 500 | < 10 | 50 to 100 | 1.86 | 10 to 50 | C[C@H](Nc1nc(C(=O)N2CC(C)(NC(=O)C3CC3)C2)c2sccc2n1)c1cncc(F)c1 [Example Z621, (S)—N-(1-(2-((1-(5-Fluoropyridin-3-yl)ethyl)amino)thieno[3,2-d]pyrimidine-4-carbonyl)-3-methylazetidin-3-yl)cyclopropanecarboxamide]
> 500 | > 500 | 10 to 50 | 1.02 | 10 to 50 | C[C@H](Nc1nc(C(=O)N2CC(NC(=O)C3CCOCC3)C2)c2sccc2n1)c1cncc(F)c1 [Example Z622, (S)—N-(1-(2-((1-(5-Fluoropyridin-3-yl)ethyl)amino)thieno[3,2-d]pyrimidine-4-carbonyl)azetidin-3-yl)tetrahydro-2H-pyran-4-carboxamide]
> 500 | 100 to 500 | < 10 | 0.95 | < 10 | C[C@H](Nc1nc(C(=O)N2CC(NC(=O)NC3CCC3)C2)c2sccc2n1)c1cncc(F)c1 [Example Z623, (S)-1-Cyclobutyl-3-(1-(2-((1-(5-fluoropyridin-3-yl)ethyl)amino)thieno[3,2-d]pyrimidine-4-carbonyl)azetidin-3-yl)urea]
> 500 | > 500 | 10 to 50 | 0.68 | 10 to 50 | Cc1csc2c(C(=O)N3CC(NC(=O)c4cccc(Cl)c4)C3)nc(N[C@@H](C)c3cncc(F)c3)nc12 [Example Z625, (S)-3-Chloro-N-(1-(2-((1-(5-fluoropyridin-3-yl)ethyl)amino)-7-methylthieno[3,2-d]pyrimidine-4-carbonyl)azetidin-3-yl)benzamide]
> 500 | 100 to 500 | < 10 | 0.85 | 10 to 50 | Cc1cccc(C(=O)NC2CN(C(=O)c3nc(N[C@@H](C)c4cncc(F)c4)nc4ccsc34)C2)c1 [Example Z626, (S)—N-(1-(2-((1-(5-Fluoropyridin-3-yl)ethyl)amino)thieno[3,2-d]pyrimidine-4-carbonyl)azetidin-3-yl)-3-methylbenzamide]
> 500 | 100 to 500 | < 10 | 0.15 and 0.25 | 10 to 50 | C[C@H](Nc1nc(C(=O)N2CC(NC(=O)C3(C)CCC3)C2)c2sccc2n1)c1cncc(F)c1 [Example Z627, (S)—N-(1-(2-((1-(5-Fluoropyridin-3-yl)ethyl)amino)thieno[3,2-d]pyrimidine-4-carbonyl)azetidin-3-yl)-1-methylcyclobutane-1-carboxamide]
